Assay [1] concerns the target T1, human amylin receptor (hAmyR3) (Homo sapiens, UniProt O60896+P30988).
T1 construct: host or cells: BHK cells (Hollex-1 line: human calcitonin receptor (a) + CRE-Luc), further transfected with human RAMP3
The experiment in a line: Human amylin receptor in vitro potency assay (CRE-luciferase reporter, BHK cells).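 Further: BHK cells expressing human calcitonin receptor plus RAMP3 (amylin-3 receptor) with a CRE-luciferase reporter, agonist activity read as luminescence from cAMP-driven transcription, 7-point serial dilutions.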 The assay is classed as cell-based.

The target in another assay is T2, human GLP-1 receptor (Homo sapiens, UniProt P43220).
T2 construct: expressed in transfected cells; host or cells: BHK (Baby Hamster Kidney) cells, clone BHK 467-12A KZ-10, stably transfected, with CRE-luciferase reporter
T2 sequence (P43220 24-463): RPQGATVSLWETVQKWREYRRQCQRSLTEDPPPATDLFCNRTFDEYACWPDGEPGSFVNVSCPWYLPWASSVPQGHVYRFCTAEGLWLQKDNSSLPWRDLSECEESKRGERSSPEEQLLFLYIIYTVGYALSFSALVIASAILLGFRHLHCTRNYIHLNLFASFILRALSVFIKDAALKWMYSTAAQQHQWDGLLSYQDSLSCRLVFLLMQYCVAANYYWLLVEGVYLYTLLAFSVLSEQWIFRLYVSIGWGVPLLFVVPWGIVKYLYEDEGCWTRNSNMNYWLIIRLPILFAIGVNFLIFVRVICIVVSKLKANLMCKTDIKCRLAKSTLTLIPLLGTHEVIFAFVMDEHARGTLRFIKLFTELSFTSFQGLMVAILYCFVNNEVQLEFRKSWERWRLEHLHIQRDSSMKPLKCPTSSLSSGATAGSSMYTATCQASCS
The experiment in a line: Human GLP-1 receptor in vitro potency assay (CRE-luciferase reporter, BHK cells). Format: cell-based.

[2] abbreviates: Table 4a, BHK hAmyR3/CRE-Luc cells, 3 hours, read-out: Human AmyR3 potency [EC50 (pM)].
Where [3] appears, read: Table 4a, BHK cells expressing human GLP-1R, CRE-Luc, 3 hours, read-out: Human GLP-1R potency [EC50 (pM)].

The results in this text go back to patent publication US20230331803A1, “CO-AGONISTS OF THE GLP-1 AND AMYLIN RECEPTORS” (priority 2020, published 2023).

Read-outs that look alike come from different tables or passages of the source.

T1 sequence (P30988 25-474): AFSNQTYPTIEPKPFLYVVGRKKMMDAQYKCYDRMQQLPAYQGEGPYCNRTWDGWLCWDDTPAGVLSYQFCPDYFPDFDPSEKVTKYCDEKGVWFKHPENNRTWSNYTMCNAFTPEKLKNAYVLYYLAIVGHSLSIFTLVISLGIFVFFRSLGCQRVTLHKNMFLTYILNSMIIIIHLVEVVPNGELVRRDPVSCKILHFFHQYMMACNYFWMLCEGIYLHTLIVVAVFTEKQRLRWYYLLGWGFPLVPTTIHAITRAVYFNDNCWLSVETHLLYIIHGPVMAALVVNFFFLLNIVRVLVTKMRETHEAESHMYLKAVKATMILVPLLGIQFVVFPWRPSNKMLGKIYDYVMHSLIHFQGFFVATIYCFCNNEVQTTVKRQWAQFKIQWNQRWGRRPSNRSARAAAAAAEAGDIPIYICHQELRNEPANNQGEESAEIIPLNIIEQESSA
T1 sequence (O60896 24-148): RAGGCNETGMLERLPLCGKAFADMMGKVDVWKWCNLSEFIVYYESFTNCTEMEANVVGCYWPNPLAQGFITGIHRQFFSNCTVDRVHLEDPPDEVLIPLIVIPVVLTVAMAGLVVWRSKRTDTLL

On to `CC[C@H](C)[C@H](NC(=O)[C@H](Cc1ccccc1)NC(=O)[C@H](CCC(=O)O)NC(=O)[C@H](CCCCNC(=O)COCCOCCNC(=O)COCCOCCNC(=O)CC[C@H](NC(=O)CCCCCCCCCCCCCCCCC(=O)O)C(=O)O)NC(=O)[C@H](C)NC(=O)[C@H](C)NC(=O)[C@H](CCC(N)=O)NC(=O)CNC(=O)[C@H](CCC(=O)O)NC(=O)[C@H](CC(C)C)NC(=O)[C@H](Cc1ccc(O)cc1)NC(=O)[C@H](CO)NC(=O)[C@H](CO)NC(=O)[C@@H](NC(=O)[C@H](CC(=O)O)NC(=O)[C@H](CO)NC(=O)[C@@H](NC(=O)[C@H](Cc1ccccc1)NC(=O)[C@@H](NC(=O)CNC(=O)[C@H](CCC(=O)O)NC(=O)C(C)(C)NC(=O)[C@@H](N)Cc1c[nH]cn1)[C@@H](C)O)[C@@H](C)O)C(C)C)C(=O)N[C@@H](C)C(=O)N[C@@H](Cc1c[nH]c2ccccc12)C(=O)N[C@@H](CC(C)C)C(=O)N[C@H](C(=O)N[C@@H](CCCNC(=N)N)C(=O)NCC(=O)N[C@@H](CCCNC(=N)N)C(=O)NCC(=O)NCC(=O)N[C@@H](CCC(N)=O)C(=O)N[C@@H](CCC(=O)O)C(=O)N1CCC[C@H]1C(=O)NCC(=O)N[C@@H](CCC(N)=O)C(=O)N[C@@H](CCC(=O)O)C(=O)N1CCC[C@H]1C(=O)N[C@@H](CCCCNC(=O)COCCOCCNC(=O)COCCOCCNC(=O)CC[C@H](NC(=O)CCCCCCCCCCCCCCCCC(=O)O)C(=O)O)C(=O)N[C@@H](CCC(=O)O)C(=O)N[C@@H](C)C(=O)N[C@@H](CO)C(=O)N[C@@H](CCC(=O)O)C(=O)N[C@@H](CC(C)C)C(=O)N[C@@H](CO)C(=O)N[C@H](C(=O)N[C@@H](C)C(=O)N[C@@H](C)C(=O)N[C@@H](CC(C)C)C(=O)NCC(=O)N[C@@H](CCCNC(=N)N)C(=O)N[C@@H](CC(C)C)C(=O)N[C@@H](CO)C(=O)N[C@@H](C)C(=O)N[C@@H](CCC(=O)O)C(=O)N[C@@H](CC(C)C)C(=O)N[C@@H](Cc1c[nH]cn1)C(=O)N[C@@H](CCC(=O)O)C(=O)N[C@@H](CC(C)C)C(=O)N[C@@H](C)C(=O)N[C@H](C(=O)N[C@@H](CC(C)C)C(=O)N1CCC[C@H]1C(=O)N[C@@H](CCCNC(=N)N)C(=O)N[C@H](C(=O)N[C@@H](CCC(=O)O)C(=O)N[C@H](C(=O)NCC(=O)N[C@@H](CO)C(=O)NCC(=O)N[C@@H](CO)C(=O)N1CCC[C@H]1C(N)=O)[C@@H](C)O)[C@@H](C)O)[C@@H](C)O)[C@@H](C)O)C(C)C` [Compound 0071], for which the EC50 was 159 pM in assay [1] and 69.4 pM on human GLP-1 receptor.

`CC[C@H](C)[C@H](NC(=O)[C@H](Cc1ccccc1)NC(=O)[C@H](CCC(=O)O)NC(=O)[C@H](CCCCNC(=O)COCCOCCNC(=O)COCCOCCNC(=O)CC[C@H](NC(=O)CCCCCCCCCCCCCCC(=O)O)C(=O)O)NC(=O)[C@H](C)NC(=O)[C@H](C)NC(=O)[C@H](CCC(N)=O)NC(=O)CNC(=O)[C@H](CCC(=O)O)NC(=O)[C@H](CC(C)C)NC(=O)[C@H](Cc1ccc(O)cc1)NC(=O)[C@H](CO)NC(=O)[C@H](CO)NC(=O)[C@@H](NC(=O)[C@H](CC(=O)O)NC(=O)[C@H](CO)NC(=O)[C@@H](NC(=O)[C@H](Cc1ccccc1)NC(=O)[C@@H](NC(=O)CNC(=O)[C@H](CCC(=O)O)NC(=O)C(C)(C)NC(=O)[C@@H](N)Cc1c[nH]cn1)[C@@H](C)O)[C@@H](C)O)C(C)C)C(=O)N[C@@H](C)C(=O)N[C@@H](Cc1c[nH]c2ccccc12)C(=O)N[C@@H](CC(C)C)C(=O)N[C@H](C(=O)N[C@@H](CCCNC(=N)N)C(=O)NCC(=O)N[C@@H](CCCCNC(=O)COCCOCCNC(=O)COCCOCCNC(=O)CC[C@H](NC(=O)CCCCCCCCCCCCCCC(=O)O)C(=O)O)C(=O)NCC(=O)NCC(=O)NCC(=O)N[C@@H](CCC(=O)O)C(=O)N[C@@H](C)C(=O)N[C@@H](CO)C(=O)N[C@@H](CCC(=O)O)C(=O)N[C@@H](CC(C)C)C(=O)N[C@@H](CO)C(=O)N[C@H](C(=O)N[C@@H](C)C(=O)N[C@@H](C)C(=O)N[C@@H](CC(C)C)C(=O)NCC(=O)N[C@@H](CCCNC(=N)N)C(=O)N[C@@H](CC(C)C)C(=O)N[C@@H](CO)C(=O)N[C@@H](C)C(=O)N[C@@H](CCC(=O)O)C(=O)N[C@@H](CC(C)C)C(=O)N[C@@H](Cc1c[nH]cn1)C(=O)N[C@@H](CCC(=O)O)C(=O)N[C@@H](CC(C)C)C(=O)N[C@@H](C)C(=O)N[C@H](C(=O)N[C@@H](CC(C)C)C(=O)N1CCC[C@H]1C(=O)N[C@@H](CCCNC(=N)N)C(=O)N[C@H](C(=O)N[C@@H](CCC(=O)O)C(=O)N[C@H](C(=O)NCC(=O)N[C@@H](CO)C(=O)NCC(=O)N[C@@H](CO)C(=O)N1CCC[C@H]1C(N)=O)[C@@H](C)O)[C@@H](C)O)[C@@H](C)O)[C@@H](C)O)C(C)C` [Compound 0075]: the EC50 in assay [1] (setting [2]) stood at 43.9 pM; at human GLP-1 receptor (setting [3]) it was 84.5 pM.

Turning to `CC[C@H](C)[C@H](NC(=O)[C@H](Cc1ccccc1)NC(=O)[C@H](CCCCNC(=O)COCCOCCNC(=O)COCCOCCNC(=O)CC[C@H](NC(=O)CCCCCCCCCCCCCCC(=O)O)C(=O)O)NC(=O)[C@H](CCCNC(=N)N)NC(=O)[C@H](C)NC(=O)[C@H](C)NC(=O)[C@H](CCC(N)=O)NC(=O)[C@H](CCC(=O)O)NC(=O)[C@H](CCC(=O)O)NC(=O)[C@H](CC(C)C)NC(=O)[C@H](Cc1ccc(O)cc1)NC(=O)[C@H](CO)NC(=O)[C@H](CO)NC(=O)[C@@H](NC(=O)[C@H](CC(=O)O)NC(=O)[C@H](CO)NC(=O)[C@@H](NC(=O)[C@H](Cc1ccccc1)NC(=O)[C@@H](NC(=O)CNC(=O)[C@H](CCC(=O)O)NC(=O)C(C)(C)NC(=O)[C@@H](N)Cc1c[nH]cn1)[C@@H](C)O)[C@@H](C)O)C(C)C)C(=O)N[C@@H](CCC(=O)O)C(=O)N[C@@H](Cc1c[nH]c2ccccc12)C(=O)N[C@@H](CC(C)C)C(=O)N[C@H](C(=O)N[C@@H](CCCNC(=N)N)C(=O)NCC(=O)N[C@@H](CCCCNC(=O)COCCOCCNC(=O)COCCOCCNC(=O)CC[C@H](NC(=O)CCCCCCCCCCCCCCC(=O)O)C(=O)O)C(=O)NCC(=O)N[C@@H](CCC(=O)O)C(=O)NCC(=O)N[C@@H](CCC(N)=O)C(=O)N[C@@H](CCC(=O)O)C(=O)N1CCC[C@H]1C(=O)NCC(=O)NCC(=O)N[C@@H](C)C(=O)N[C@@H](CO)C(=O)N[C@@H](CCC(=O)O)C(=O)N[C@@H](CC(C)C)C(=O)N[C@@H](CO)C(=O)N[C@H](C(=O)N[C@@H](C)C(=O)N[C@@H](C)C(=O)N[C@@H](CC(C)C)C(=O)NCC(=O)N[C@@H](CCCNC(=N)N)C(=O)N[C@@H](CC(C)C)C(=O)N[C@@H](CO)C(=O)N[C@@H](C)C(=O)N[C@@H](CCC(=O)O)C(=O)N[C@@H](CC(C)C)C(=O)N[C@@H](Cc1c[nH]cn1)C(=O)N[C@@H](CCC(=O)O)C(=O)N[C@@H](CC(C)C)C(=O)N[C@@H](C)C(=O)N[C@H](C(=O)N[C@@H](CC(C)C)C(=O)N1CCC[C@H]1C(=O)N[C@@H](CCCNC(=N)N)C(=O)N[C@H](C(=O)N[C@@H](CCC(=O)O)C(=O)N[C@H](C(=O)NCC(=O)N[C@@H](CO)C(=O)NCC(=O)N[C@@H](CO)C(=O)N1CCC[C@H]1C(N)=O)[C@@H](C)O)[C@@H](C)O)[C@@H](C)O)[C@@H](C)O)C(C)C` [Compound 0105], the EC50 amounted to 30.8 pM in assay [1] (setting [2]) and 1.1 pM at human GLP-1 receptor (setting [3]).

In the case of `CC[C@H](C)[C@H](NC(=O)[C@H](Cc1ccccc1)NC(=O)[C@H](CCC(=O)O)NC(=O)[C@H](CCCNC(=N)N)NC(=O)[C@H](C)NC(=O)[C@H](C)NC(=O)[C@H](CCC(N)=O)NC(=O)[C@H](CCC(=O)O)NC(=O)[C@H](CCC(=O)O)NC(=O)[C@H](CC(C)C)NC(=O)[C@H](Cc1ccc(O)cc1)NC(=O)[C@H](CO)NC(=O)[C@H](CO)NC(=O)[C@@H](NC(=O)[C@H](CC(=O)O)NC(=O)[C@H](CO)NC(=O)[C@@H](NC(=O)[C@H](Cc1ccccc1)NC(=O)[C@@H](NC(=O)CNC(=O)[C@H](CCC(=O)O)NC(=O)C(C)(C)NC(=O)CCc1c[nH]cn1)[C@@H](C)O)[C@@H](C)O)C(C)C)C(=O)N[C@@H](C)C(=O)N[C@@H](Cc1c[nH]c2ccccc12)C(=O)N[C@@H](CC(C)C)C(=O)N[C@H](C(=O)N[C@@H](CCCNC(=N)N)C(=O)NCC(=O)N[C@@H](CCCNC(=N)N)C(=O)N[C@@H](CCCCNC(=O)CCCS(=O)(=O)NC(=O)CCCCCCCCCCCCCCCCc1nnn[nH]1)C(=O)N[C@@H](CCC(=O)O)C(=O)N[C@@H](C)C(=O)N[C@@H](CO)C(=O)N[C@@H](CCC(=O)O)C(=O)N[C@@H](CC(C)C)C(=O)N[C@@H](CO)C(=O)N[C@H](C(=O)N[C@@H](C)C(=O)N[C@@H](C)C(=O)N[C@@H](CC(C)C)C(=O)NCC(=O)N[C@@H](CCCNC(=N)N)C(=O)N[C@@H](CC(C)C)C(=O)N[C@@H](CO)C(=O)N[C@@H](C)C(=O)N[C@@H](CCC(=O)O)C(=O)N[C@@H](CC(C)C)C(=O)N[C@@H](Cc1c[nH]cn1)C(=O)N[C@@H](CCC(=O)O)C(=O)N[C@@H](CC(C)C)C(=O)N[C@@H](C)C(=O)N[C@H](C(=O)N[C@@H](CC(C)C)C(=O)N1CCC[C@H]1C(=O)N[C@@H](CCCNC(=N)N)C(=O)N[C@H](C(=O)N[C@@H](CCC(=O)O)C(=O)N[C@H](C(=O)NCC(=O)N[C@@H](CO)C(=O)NCC(=O)N[C@@H](CO)C(=O)N1CCC[C@H]1C(N)=O)[C@@H](C)O)[C@@H](C)O)[C@@H](C)O)[C@@H](C)O)C(C)C` [Compound 0124], the EC50 in assay [1] (setting [2]) was 24.4 pM; at human GLP-1 receptor (setting [3]), 27.9 pM.
